This note sets out measurements from the Deep4Chem optical property database.

The data set can be described thus: photoluminescence quantum yield (fraction); solvent given as SMILES.

Consider `CC(O)CC1=N/C(=C\c2cccc(N(C)C)c2)C(=O)N1C` (stereo unspecified), for which the photoluminescence quantum yield reads like this: (in C1CCOC1) 0.11; (in CC#N) 0.03; (in CCCCCC) 0.37.
Consider `COC(=O)/C(C#N)=c1/cc/c(=c2/cc/c(=C(\C#N)C(=O)OC)s2)s1`, for which the photoluminescence quantum yield (in Cc1ccccc1) stood at 0.0035.
Molecule `COc1cccc(C2=C(c3ccc(C(C)(C)C)cc3)C(c3ccc(C(C)(C)C)cc3)=[N+]3C2=C(c2ccccc2)c2c(-c4cccc(OC)c4)c(-c4ccc(C(C)(C)C)cc4)c(-c4ccc(C(C)(C)C)cc4)n2[B-]3(F)F)c1` returned a photoluminescence quantum yield (in C1CCCCC1) of 0.44; a photoluminescence quantum yield (in C1CCOC1) of 0.45; a photoluminescence quantum yield (in CC#N) of 0.38; a photoluminescence quantum yield (in Cc1ccccc1) of 0.54; a photoluminescence quantum yield (in ClCCl) of 0.58.
For `CCCCCCN1C(=O)c2cccc3cc(/N=C\c4ccc(N5CCOCC5)cc4)cc(c23)C1=O`, the photoluminescence quantum yield (in ClC(Cl)Cl) is 0.089.
Where the note is “in ClCCl”, `CCCCCC(=O)c1ccc2c3c(sc2c1)-c1ccccc1P3(=O)c1ccccc1` (stereo unspecified) returned a photoluminescence quantum yield of 0.15.
Regarding `COc1cc2c(cc1/C=C(\C#N)c1nc3ccccc3s1)c1ccccc1n2C`, the photoluminescence quantum yield reads like this: (in C1CCOC1) 0.002; (in CC#N) 0.001; (in CCOC(C)=O) 0.003; (in CN(C)C=O) 0.003; (in CO) 0.001; (in CS(C)=O) 0.004. For the same molecule, the photoluminescence quantum yield is 0.003 (in Cc1ccccc1), 0.003 (in ClC(Cl)Cl) and 0.003 (in ClCCl).
With `CCCCCCOc1ccc(/C=C/c2ccc(N(c3ccc(/C=C/c4ccc(OCCCCCC)cc4)cc3)c3ccc(-c4nc5ccccc5nc4-c4ccc(N(c5ccc(/C=C/c6ccc(OCCCCCC)cc6)cc5)c5ccc(/C=C/c6ccc(OCCCCCC)cc6)cc5)cc4)cc3)cc2)cc1`, the photoluminescence quantum yield (in C1CCOC1) was determined as 0.66.
In the case of `F[B-]1(F)n2c(nc3c4ccccc4c4ccccc4c32)-c2cccc[n+]21`, the photoluminescence quantum yield by setting is: (in CC#N) 0.08; (in CCCCCC) 0.95; (in CO) 0.14; (in ClC(Cl)Cl) 0.3; (in ClCCl) 0.32.
`COc1ccc2c(c1)CCC1=C(c3ccccc3)C3=Nc4c(-c5ccccc5)c5c(n4[B-](F)(F)[N+]3=C12)-c1ccc(OC)cc1CC5` showed a photoluminescence quantum yield (in ClC(Cl)Cl) of 0.28.
Where the note is “in CN(C)C=O”, `O=C1NC(=O)c2ccc3c4ccc5c6c(ccc(c7ccc1c2c73)c64)C(=O)N(c1ccc(Cl)cc1)C5=O` had a photoluminescence quantum yield of 0.98.
With `[O-][n+]1c(-c2ccc(Br)cc2)cc(N2CCOCC2)nc1/C=C/c1ccccc1`, for the setting “in ClCCl”, the photoluminescence quantum yield worked out at 0.15.
Consider `COc1ccccc1C1=[N+]2C(=C(c3ccccc3)c3c4ccccc4c(-c4ccccc4OC)n3[B-]2(F)F)c2ccccc21`, for which the photoluminescence quantum yield (in ClCCl) stood at 0.91.
For `CC(C)c1cccc(C(C)C)c1-n1c(=O)c2ccc3c4ccc5c(=O)n(-c6c(C(C)C)cccc6C(C)C)c(=O)c6cc7c(-c8ccccc8)nc8cc(c1=O)c2c3c8c7c4c56`, for the setting “in ClC(Cl)Cl”, the photoluminescence quantum yield came to 0.74.
For `Oc1cc(-c2ccco2)ccc1-c1nc2ccccc2s1`, the photoluminescence quantum yield is 0.137 (in CCO), 0.0812 (in ClCCl) and 0.1 (in O).
`COc1c2ccccc2c(OC)c2c(C#CC(C)(C)C)c3cc4sccc4cc3c(C#CC(C)(C)C)c12` yielded a photoluminescence quantum yield (in C1CCOC1) of 0.1, a photoluminescence quantum yield (in Cc1ccccc1) of 0.14 and a photoluminescence quantum yield (in ClCCl) of 0.08.
As to `N#Cc1ccc(N)c2nonc12`, the photoluminescence quantum yield by setting is: (in C1COCCO1) 0.218; (in CC#N) 0.105; (in CCCCCC) 0.329; (in CCO) 0.059; (in Cc1ccccc1) 0.304; (in ClCCl) 0.195. In addition, the photoluminescence quantum yield (in O) stood at 0.002.
`COc1ccc2c(C#N)cc3ccc4cc(C#N)c5ccc(OC)cc5c4c3c2c1` displayed a photoluminescence quantum yield (in ClC(Cl)Cl) of 0.1.
Molecule `c1ccc(-c2nc(-c3ccc(N4c5ccccc5Sc5ccccc54)cc3)nn2-c2ccc(N3c4ccccc4Sc4ccccc43)cc2)nc1` came in with a photoluminescence quantum yield (in ClCCl) of 0.0129.
Regarding `CN1c2cc3nc4cc(F)c(F)cc4nc3cc2N(C)C1(C)C`, where the note is “in CCO”, the photoluminescence quantum yield stood at 0.8.
With `CCCSC1=[N+]2C(=C(c3ccccc3)c3ccc(SCCC)n3[B-]2(F)F)C=C1`, the photoluminescence quantum yield reads like this: (in CC#N) 0.44; (in CCCCCC) 0.34; (in CCOC(C)=O) 0.36; (in CO) 0.42; (in ClCCl) 0.43.
For the molecule `CCCCCCCCC1(CCCCCCCC)c2cc3c(cc2-c2sc(-c4ccc(/C=C5\SC(=S)N(CC)C5=O)c5nsnc45)cc21)C(CCCCCCCC)(CCCCCCCC)c1cc(-c2ccc(/C=C4\SC(=S)N(CC)C4=O)c4nsnc24)sc1-3`, the photoluminescence quantum yield reads like this: (in C1CCOC1) 0.029; (in ClC(Cl)Cl) 0.04.
With `C[n+]1ccc(-c2cc[n+](C)cc2)cc1`, for the setting “in CC#N”, the photoluminescence quantum yield turned out to be 0.02.
For the setting “in ClCCl”, `F[B-]1(F)n2c(c3ccccc3c2-c2ccccc2)C(c2ccccc2)=C2c3ccccc3C(c3ccccc3)=[N+]21` had a photoluminescence quantum yield of 0.93.
Turning to `CCCCC1(CCCC)c2cc(C#Cc3ccc(C=C4c5ccccc5C=Cc5ccccc54)cc3)ccc2-c2ccc(C#Cc3ccc(C=C4c5ccccc5C=Cc5ccccc54)cc3)cc21`, the photoluminescence quantum yield (in C1CCOC1) is 0.00084.
For the molecule `CCCCCCCCOc1ccc(C#Cc2ccc(C#Cc3ccc(OCCCCCCCC)c(OCCCCCCCC)c3)c3nc4c5ccccc5c5ccccc5c4nc23)cc1OCCCCCCCC`, the photoluminescence quantum yield is, setting by setting: (in C1CCOC1) 0.18; (in Cc1ccccc1) 0.19; (in ClCCl) 0.33.
`O=c1ccc2cc3c(cc2o1)OCC3`: the photoluminescence quantum yield by setting is: (in CC(C)O) 0.23; (in CCO) 0.23; (in CCOCC) 0.06; (in CO) 0.3; (in O) 0.83.
The molecule `Cc1nnc(-c2ccc(-n3c4ccccc4c4ccccc43)cc2)o1` registered a photoluminescence quantum yield (in Cc1ccccc1) of 0.55.
As to `N#CC1=CC(/C=C/c2ccccc2)=CC(C#N)=P1(c1ccccc1)c1ccccc1`, where the note is “in ClC(Cl)Cl”, the photoluminescence quantum yield was determined as 0.13.
Take `CC1(C)c2ccccc2N(c2ccc(C(=CC#N)c3ccc(N4c5ccccc5C(C)(C)c5ccccc54)cc3)cc2)c2ccccc21`: the photoluminescence quantum yield (in Cc1ccccc1) stood at 0.313.
Take `CCOC(=O)c1ccc2c(c1)[se]c1c3ccc(C(=O)OCC)cc3[se]c21`: the photoluminescence quantum yield (in CCCO) amounted to 0.002.
`c1ccc(CSc2c3ccc(=[N+]4CCCCC4)cc-3oc3cc(N4CCCCC4)ccc23)cc1` had a photoluminescence quantum yield (in ClCCl) of 0.79.
For `CCn1c2ccccc2c2cc(-c3cc(-c4ccc5c(c4)c4ccccc4n5CC)nc(N4CCCCC4)n3)ccc21`, the photoluminescence quantum yield was 0.15 (in C1CCOC1); 0.14 (in CCOC(C)=O); 0.17 (in CN(C)C=O); 0.16 (in Cc1ccccc1); 0.15 (in ClCCl).
Take `Cc1ccc(NC(=O)c2ccc(N(C)C)cc2)cc1`: the photoluminescence quantum yield is, setting by setting: (in C1CCCCC1) 0.0015; (in C1CCOC1) 0.0028; (in CC#N) 0.0027; (in CCOCC) 0.0034.
Take `CC1=N/C(=C\c2ccc(N(C)C)cc2)C(=O)N1C`: the photoluminescence quantum yield was 0.0001 (in C1CCCCC1); 0.0004 (in C1CCOC1); 0.0003 (in CC#N); 0.0003 (in CO); 0.0002 (in CS(C)=O); 0.0009 (in ClCCl). The same molecule showed a photoluminescence quantum yield (in O) of 0.0002.
As to `COc1ccc2oc(-c3cc4cc(OC)ccc4oc3=O)cc2c1`, the photoluminescence quantum yield (in CS(C)=O) is 0.16.
Take `CN(C)c1ccc(C(=Cc2ccc(C#N)cc2)c2ccc(N(C)C)cc2)cc1`: the photoluminescence quantum yield (in C1CCOC1) came out at 0.056.
Consider `N#CC(C#N)=Cc1ccc2c(c1)c1ccccc1n2-c1cccc2ccccc12`, for which the photoluminescence quantum yield (in ClCCl) was 0.05.
`CNC1=C2C=CC=[N+]2[B-](F)(F)n2cccc21` yielded a photoluminescence quantum yield (in C1CCCCC1) of 0.7; a photoluminescence quantum yield (in CC(C)=O) of 0.16; a photoluminescence quantum yield (in CCO) of 0.16; a photoluminescence quantum yield (in CCOC(C)=O) of 0.42; a photoluminescence quantum yield (in CO) of 0.1; a photoluminescence quantum yield (in OCC(F)(F)F) of 0.23.
Turning to `CCCCCCCCCCCCCCCCCCOC(=O)/C=C/C1=CC2=C(c3c(C)cc(C)cc3C)c3cccn3[B-](F)(F)[N+]2=C1`, the photoluminescence quantum yield (in ClCCl) stood at 0.34.
Consider `Cc1ccc2sc3cc(CCC(=O)O)ccc3c(=O)c2c1`, for which the photoluminescence quantum yield by setting is: (in CC#N) 0.0041; (in CC(C)O) 0.054; (in CCO) 0.082; (in CO) 0.12; (in OCCO) 0.23.
For `c1ccc2nc(-n3c4ccccc4c4ccccc43)c(-n3c4ccccc4c4ccccc43)nc2c1`, the photoluminescence quantum yield (in Cc1ccccc1) came out at 0.13.
`CN(C)c1ccc(-c2nc(C#N)c(C#N)n2C)cc1`: the photoluminescence quantum yield came out at 0.85 (in C1CCCCC1), 0.02 (in CC#N), 0.003 (in CO) and 0.73 (in ClC(Cl)Cl).
Turning to `CCCCCCCCC1(CCCCCCCC)c2cc3c(cc2-c2sc(-c4ccc(/C=C5\SC(N6CCCCC6)=NC5=O)c5nsnc45)cc21)C(CCCCCCCC)(CCCCCCCC)c1cc(-c2ccc(/C=C4\SC(N5CCCCC5)=NC4=O)c4nsnc24)sc1-3`, the photoluminescence quantum yield worked out at 0.14 (in C1CCOC1) and 0.144 (in ClC(Cl)Cl).
Under “in C1CCCCC1”, `COc1ccc(C2=C(c3ccc(OC)cc3)C(C)(C)c3cc(-c4ccccc4)ccc32)cc1` registered a photoluminescence quantum yield of 0.06.
For the setting “in Cc1ccccc1”, `c1ccc(-c2nc3c4ccccc4c4ccccc4c3n2-c2cccc(-c3nc4c5ccccc5c5ccccc5c4n3-c3ccccc3)c2)cc1` had a photoluminescence quantum yield of 0.75.
`Cc1ccccc1CN(Cc1ccccc1C)c1nc(C#N)c(N(Cc2ccccc2C)Cc2ccccc2C)nc1C#N`: the photoluminescence quantum yield (in ClC(Cl)Cl) came to 0.73.
